# Data reported in ChEMBL document CHEMBL1201862, “PubChem BioAssay data set” (2004).
#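 Results reflect a 48-hour exposure of cells in 96-well plates to compound at five concentrations. GI50 is the concentration that inhibits growth by half.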 Activity calls are given as the source filed them. Cut-off read from the data, not from the text of the source: active = GI50 up to about 1.1 µM and inactive = higher.
# Tests used:
# Assay in all cases: inhibition of tumour cell growth, NCI panel, 48 h
# [1] = test system: HCC 2998
# [2] = test system: HCT-15
# [3] = test system: HT-29
# [4] = test system: Hs-578T
# [5] = test system: KM12
# [6] = test system: LOX IMVI
# [7] = test system: MCF7
# [8] = test system: MDA-MB-231
# [9] = test system: Malme-3M
# [10] = test system: OVCAR-5
# [11] = test system: RPMI-8226
# [12] = test system: RXF 393
# [13] = test system: SF-295
# [14] = test system: SK-MEL-2
# [15] = test system: SNB-19
# [16] = test system: SNB-75
# [17] = test system: TK-10
# [18] = test system: UACC-257
# [19] = test system: UO-31
# [20] = test system: NCI-H226
SMILES,GI50 [1],GI50 [2],GI50 [3],GI50 [4],GI50 [5],GI50 [6],GI50 [7],GI50 [8],GI50 [9],GI50 [10],GI50 [11],GI50 [12],GI50 [13],GI50 [14],GI50 [15],GI50 [16],GI50 [17],GI50 [18],GI50 [19],GI50 [20]
Cc1ccc(/N=N/c2c(C)c(C#N)c(=S)n(C3OC(CO)C(O)C(O)C3O)c2-c2ccccc2)cc1 (configuration not stated),41.1 µM (inactive),21.9 µM,27.7 µM (inactive),24.5 µM (inactive),19 µM (inactive),17.2 µM (inactive),18.2 µM (inactive),40 µM (inactive),24.9 µM (inactive),28.9 µM (inactive),28.9 µM (inactive),17.8 µM (inactive),20.5 µM (inactive),19.5 µM (inactive),19.6 µM (inactive),20.1 µM (inactive),29.5 µM (inactive),28.1 µM (inactive),33.5 µM (inactive),
CCC(=O)N1C(=O)C(CC)(CC)C(=O)N1C(=O)CC,> 100 µM (inactive),> 100 µM,> 100 µM (inactive),> 100 µM (inactive),> 100 µM (inactive),,> 100 µM (inactive),> 100 µM (inactive),> 100 µM (inactive),> 100 µM (inactive),> 100 µM (inactive),> 100 µM (inactive),> 100 µM (inactive),> 100 µM (inactive),> 100 µM (inactive),> 100 µM (inactive),> 100 µM (inactive),> 100 µM (inactive),> 100 µM (inactive),> 100 µM (inactive)
Cc1ccc(NC(=O)CC(=O)N2N=C(N(c3ccccc3)c3ccccc3)CC2c2ccccc2)cc1 (configuration not stated),> 100 µM (inactive),> 100 µM,> 100 µM (inactive),31.6 µM (inactive),> 100 µM (inactive),,> 100 µM (inactive),> 100 µM (inactive),,> 100 µM (inactive),> 100 µM (inactive),52.8 µM (inactive),> 100 µM (inactive),> 100 µM (inactive),> 100 µM (inactive),91.4 µM (inactive),> 100 µM (inactive),> 100 µM (inactive),> 100 µM (inactive),> 100 µM (inactive)
C=CCOc1ccc(C(=N/NC(=O)c2ccccc2)/N=N/c2ccc([N+](=O)[O-])cc2)cc1OC,74.1 µM (inactive),> 100 µM,> 100 µM (inactive),> 100 µM (inactive),> 100 µM (inactive),82.6 µM (inactive),> 100 µM (inactive),> 100 µM (inactive),> 100 µM (inactive),> 100 µM (inactive),,> 100 µM (inactive),> 100 µM (inactive),> 100 µM (inactive),> 100 µM (inactive),> 100 µM (inactive),> 100 µM (inactive),> 100 µM (inactive),> 100 µM (inactive),> 100 µM (inactive)
N#Cc1c(-c2ccc([N+](=O)[O-])cc2)c(C#N)c(=O)n(NS(=O)(=O)c2ccccc2)c1-c1ccccc1,> 100 µM (inactive),> 100 µM,> 100 µM (inactive),> 100 µM (inactive),> 100 µM (inactive),> 100 µM (inactive),> 100 µM (inactive),> 100 µM (inactive),> 100 µM (inactive),> 100 µM (inactive),> 100 µM (inactive),> 100 µM (inactive),> 100 µM (inactive),> 100 µM (inactive),> 100 µM (inactive),> 100 µM (inactive),> 100 µM (inactive),> 100 µM (inactive),,> 100 µM (inactive)
Cc1ccc(C(=O)C#Cc2cn(C3CC(O)C(CO)O3)c(=O)[nH]c2=O)cc1 (configuration not stated),> 100 µM (inactive),> 100 µM,> 100 µM (inactive),95.1 µM (inactive),> 100 µM (inactive),95.9 µM (inactive),47.6 µM (inactive),> 100 µM (inactive),15.4 µM (inactive),,67.8 µM (inactive),> 100 µM (inactive),> 100 µM (inactive),> 100 µM (inactive),> 100 µM (inactive),> 100 µM (inactive),> 100 µM (inactive),> 100 µM (inactive),> 100 µM (inactive),> 100 µM (inactive)
COc1cc2c(c(OC)c1OC)-c1ccc(OC)c(=O)cc1C(NC(=O)c1ccc(N=[N+]=[N-])cc1)CC2 (configuration not stated),0.0215 µM (active),0.111 µM,0.0288 µM (active),0.084 µM (active),0.0234 µM (active),0.0423 µM (active),0.0144 µM (active),0.0352 µM (active),0.608 µM (active),,0.0359 µM (active),0.0185 µM (active),0.0246 µM (active),0.0327 µM (active),0.0767 µM (active),0.766 µM (active),13 µM (inactive),0.615 µM (active),9.08 µM (inactive),0.451 µM (active)
Cc1nn(C(=O)c2ccncc2)c2c1C(c1ccccc1)SC(=N)N2 (configuration not stated),> 10 µM (inactive),> 10 µM,> 10 µM (inactive),> 10 µM (inactive),> 10 µM (inactive),> 10 µM (inactive),> 10 µM (inactive),> 10 µM (inactive),> 10 µM (inactive),> 10 µM (inactive),> 10 µM (inactive),> 10 µM (inactive),> 10 µM (inactive),> 10 µM (inactive),> 10 µM (inactive),> 10 µM (inactive),> 10 µM (inactive),> 10 µM (inactive),,> 10 µM (inactive)
CC(=O)Nc1nc(NC(C)=O)c2nc(CO)[nH]c2n1,> 100 µM (inactive),> 100 µM,> 100 µM (inactive),> 100 µM (inactive),> 100 µM (inactive),> 100 µM (inactive),> 100 µM (inactive),> 100 µM (inactive),> 100 µM (inactive),> 100 µM (inactive),,> 100 µM (inactive),> 100 µM (inactive),> 100 µM (inactive),> 100 µM (inactive),> 100 µM (inactive),> 100 µM (inactive),> 100 µM (inactive),> 100 µM (inactive),> 100 µM (inactive)
N#CC(C#N)=Cn1c(=S)[nH]c2ccc([N+](=O)[O-])cc21,> 100 µM (inactive),,> 100 µM (inactive),60.8 µM (inactive),> 100 µM (inactive),> 100 µM (inactive),> 100 µM (inactive),68.7 µM (inactive),> 100 µM (inactive),> 100 µM (inactive),> 100 µM (inactive),> 100 µM (inactive),> 100 µM (inactive),> 100 µM (inactive),> 100 µM (inactive),15.2 µM (inactive),> 100 µM (inactive),> 100 µM (inactive),> 100 µM (inactive),> 100 µM (inactive)
CCCCSC1=N/C(=C\c2ccco2)C(Cl)=N1,> 100 µM (inactive),> 100 µM,> 100 µM (inactive),> 100 µM (inactive),> 100 µM (inactive),,> 100 µM (inactive),> 100 µM (inactive),> 100 µM (inactive),> 100 µM (inactive),> 100 µM (inactive),> 100 µM (inactive),> 100 µM (inactive),> 100 µM (inactive),> 100 µM (inactive),> 100 µM (inactive),> 100 µM (inactive),> 100 µM (inactive),> 100 µM (inactive),> 100 µM (inactive)
CN(/N=C/c1ccccn1)C1=NCCN1,> 100 µM (inactive),> 100 µM,> 100 µM (inactive),> 100 µM (inactive),> 100 µM (inactive),> 100 µM (inactive),> 100 µM (inactive),> 100 µM (inactive),> 100 µM (inactive),> 100 µM (inactive),> 100 µM (inactive),> 100 µM (inactive),> 100 µM (inactive),> 100 µM (inactive),> 100 µM (inactive),> 100 µM (inactive),,> 100 µM (inactive),> 100 µM (inactive),> 100 µM (inactive)
CCOc1ccc(/N=N/C2C(=O)N(C(=O)CC(=O)Nc3ccccc3)N=C2C)cc1 (configuration not stated),40.9 µM (inactive),57.4 µM,33.6 µM (inactive),16 µM (inactive),18.6 µM (inactive),43.3 µM (inactive),54.8 µM (inactive),39.8 µM (inactive),> 100 µM (inactive),> 100 µM (inactive),,> 100 µM (inactive),> 100 µM (inactive),66.4 µM (inactive),36.5 µM (inactive),23.1 µM (inactive),> 100 µM (inactive),> 100 µM (inactive),> 100 µM (inactive),> 100 µM (inactive)
COc1ccc2c(c1OC)C(=O)N/C2=C\c1c(CCN(C)C)cc2c(c1OC)OCO2,> 100 µM (inactive),> 100 µM,> 100 µM (inactive),13.6 µM (inactive),> 100 µM (inactive),,> 100 µM (inactive),41.1 µM (inactive),62.8 µM (inactive),> 100 µM (inactive),> 100 µM (inactive),22.7 µM (inactive),43.7 µM (inactive),,> 100 µM (inactive),< 0.01 µM (active),> 100 µM (inactive),51.2 µM (inactive),,> 100 µM (inactive)
COCCn1cnc2c(Cl)nc(Nc3ccccc3)nc21,17.3 µM (inactive),22.9 µM,64 µM (inactive),24.1 µM (inactive),> 100 µM (inactive),17 µM (inactive),36.4 µM (inactive),27.7 µM (inactive),> 10 µM (inactive),> 100 µM (inactive),86.9 µM (inactive),20.9 µM (inactive),> 100 µM (inactive),17.7 µM (inactive),90.4 µM (inactive),68.5 µM (inactive),> 100 µM (inactive),36.7 µM (inactive),,> 100 µM (inactive)
